Source: USH1142H, “Optically active cyclobutyl pyrimidine” (priority 1990, dated 1993)

How the values were obtained:
[1] = tested on: HSV-1 (herpes simplex virus type 1, strain Schooler); assay: HSV-1 antiviral assay (plaque reduction in WI-38 cell culture monolayers); format: cell-based; settings: Human alphaherpesvirus 1, 96 h; HSV-1 strain Schooler; WI-38 monolayers; 4 days incubation at 37° C.; at least a 50% plaque reduction compared to virus controls; read-out: ID50 (the source's name)
Protocol: (§1) Assays were performed in cell culture systems to determine the concentrations of compounds that are effective in […] several kinds of viral infections. The assays are described below, and the results are presented in Table 1. |HSV-1 (herpes simplex virus type 1, strain Schooler), VZV |Cell Culture Assays: |HSV-1 and VZV antiviral assays: Virus was adsorbed to |WI-38 cell culture monolayers in 6 well culture plates (Costar, |Cambridge, MA) for 1 hour prior to addition of maintenance |medium containing duplicate dilutions of the test compound. |Inhibition of plaque development was evaluated on fixed and |stained monolayers after 4 days incubation at 37° C. for HSV-1 |and after 6-7 days incubation at 37° C. for VZV. ID50 values |were determined from the drug concentration which conferred at |least a 50% plaque reduction compared to virus controls.

[2] = tested on: VZV (varicella zoster virus, strain ELLEN); assay: VZV antiviral assay (plaque reduction in WI-38 cell culture monolayers); format: cell-based; settings: Human alphaherpesvirus 3, WI-38 monolayers, 6-7 days incubation at 37° C., at least a 50% plaque reduction compared to virus controls, read-out: ID50 (the source's name)
Protocol: as §1, with “Schooler), VZV |(varicella zoster virus, strain ELLEN). |Cell Culture” for “Schooler), VZV |Cell Culture”

## O=c1[nH]c(=O)n([C@@H]2C[C@H](CO)[C@H]2CO)cc1/C=C/Br [Compound 1, [1R-(1α(E),2β,3α)]-1-[2,3-bis(hydroxymethyl)cyclobutyl]-5-(2-bromoethenyl)-2,4(1H,3H)-pyrimidinedione]
[1]
  IC50: 300 nM
[2]
  IC50: 60 to 150 nM
